Measurements published in PubChem BioAssay (NCI).
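Growth conditions: 96-well plates. Treatment: test compound, 48 hours, 5 concentrations. Analysis: linear interpolation between bracketing concentrations; unreached endpoints set to highest concentration. TGI: total growth inhibition.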

How the values were obtained:
Test in all cases: inhibition of tumour cell growth, NCI panel, 48 h
[1] = test system: 786-0 renal
[2] = test system: A549 NSCLC
[3] = test system: ACHN renal
[4] = test system: CAKI-1 renal
[5] = test system: CCRF-CEM leukemia
[6] = test system: HCC-2998 colon
[7] = test system: HCT-15 colon
[8] = test system: HOP-92 NSCLC
[9] = test system: HT29 colon
[10] = test system: MALME-3M melanoma
[11] = test system: MDA-MB-435
[12] = test system: NCI-H226 lung
[13] = test system: NCI-H23 lung
[14] = test system: SK-OV-3 ovarian
[15] = test system: SNB-19 CNS
[16] = test system: SNB-75 CNS
[17] = test system: SR leukemia
[18] = test system: TK-10 renal
[19] = test system: UACC-257 melanoma
[20] = test system: UACC-62 melanoma

Compound: COc1cccc(C2c3cc4c(cc3OC(NNC(N)=O)C2C)OCO4)c1OC (stereo not given)
- TGI [1]: 16.5 µM
- TGI [2]: 56 µM
- TGI [3]: > 100 µM
- TGI [4]: 83.4 µM
- TGI [5]: > 100 µM
- TGI [6]: > 100 µM
- TGI [7]: 77.7 µM
- TGI [8]: 57.8 µM
- TGI [9]: 62.3 µM
- TGI [10]: 73.8 µM
- TGI [11]: 70.1 µM
- TGI [12]: 76.1 µM
- TGI [13]: 77.8 µM
- TGI [14]: 85.3 µM
- TGI [15]: > 100 µM
- TGI [16]: 59.3 µM
- TGI [17]: 18.8 µM
- TGI [18]: 86.3 µM
- TGI [19]: 92.1 µM
- TGI [20]: 53 µM

Compound: Cc1ccc(C(CCO)CCO)nc1
- TGI [1]: > 100 µM
- TGI [2]: > 100 µM
- TGI [3]: > 100 µM
- TGI [4]: > 100 µM
- TGI [5]: > 100 µM
- TGI [6]: > 100 µM
- TGI [7]: > 100 µM
- TGI [8]: > 100 µM
- TGI [9]: > 100 µM
- TGI [10]: > 100 µM
- TGI [11]: > 100 µM
- TGI [12]: > 100 µM
- TGI [13]: > 100 µM
- TGI [14]: > 100 µM
- TGI [15]: > 100 µM
- TGI [16]: > 100 µM
- TGI [17]: > 100 µM
- TGI [18]: > 100 µM
- TGI [19]: > 100 µM
- TGI [20]: > 100 µM

Compound: CC(C)C1CCC(=O)CC1CCCCC1CC(=O)CC1O[Si](C)(C)C(C)(C)C (stereo not given)
- TGI [1]: 17.1 µM
- TGI [2]: 32.9 µM
- TGI [3]: 15.2 µM
- TGI [4]: 19.4 µM
- TGI [5]: > 22.2 µM
- TGI [6]: 19.3 µM
- TGI [7]: 21.4 µM
- TGI [8]: 13.1 µM
- TGI [9]: 10.3 µM
- TGI [10]: 19.1 µM
- TGI [11]: 10.9 µM
- TGI [12]: 15.5 µM
- TGI [13]: 33.7 µM
- TGI [14]: 25.7 µM
- TGI [15]: 13.2 µM
- TGI [16]: 26 µM
- TGI [17]: > 35.1 µM
- TGI [18]: 23.4 µM
- TGI [19]: 21.7 µM
- TGI [20]: 17.1 µM

Compound: O=C(N/N=C\c1ccc(Cl)cc1)Nc1cccc2ccccc12
- TGI [1]: 3.9 µM
- TGI [2]: 27 µM
- TGI [3]: 4.92 µM
- TGI [4]: 4.76 µM
- TGI [5]: > 31.9 µM
- TGI [6]: > 100 µM
- TGI [7]: > 31.6 µM
- TGI [8]: 21.2 µM
- TGI [9]: > 100 µM
- TGI [10]: > 24.4 µM
- TGI [11]: 6.67 µM
- TGI [12]: > 30 µM
- TGI [13]: 98.9 µM
- TGI [14]: 6.75 µM
- TGI [15]: 5.64 µM
- TGI [16]: 5.62 µM
- TGI [17]: 9.11 µM
- TGI [18]: 17 µM
- TGI [19]: > 100 µM
- TGI [20]: > 100 µM

Compound: CCOC(=O)C12CCC(c3c(C)cccc3C)(O1)C(C(=O)OC)=C2C(=O)OC (stereo not given)
- TGI [1]: > 10 µM
- TGI [2]: > 10 µM
- TGI [3]: > 10 µM
- TGI [4]: > 10 µM
- TGI [5]: > 10 µM
- TGI [6]: > 10 µM
- TGI [7]: > 10 µM
- TGI [8]: > 10 µM
- TGI [9]: 4.72 µM
- TGI [10]: 6.4 µM
- TGI [11]: 2.27 µM
- TGI [12]: > 10 µM
- TGI [13]: > 8.69 µM
- TGI [14]: > 10 µM
- TGI [15]: > 10 µM
- TGI [16]: 9.85 µM
- TGI [17]: 6.06 µM
- TGI [18]: > 10 µM
- TGI [19]: 8.15 µM
- TGI [20]: > 10 µM
